# Laboratory results as given in paper PMC10135050, “Neutralizing Carbapenem Resistance by Co-Administering Meropenem with Novel β-Lactam-Metallo-β-Lactamase Inhibitors” (Antibiotics, 2023).
# Like-named read-outs stand apart in the source and are kept apart here.
# How the values were obtained:
# [1] = system: Serratia marcescens BM 20 (VIM-2); test: MIC, broth microdilution and checkerboard assay; format: cell-based
# Description: (§1) The Minimum Inhibitory Concentration (MIC) of meropenem BP2 was determined utilizing the broth microdilution assay, as described by the Clinical and Laboratory Standards Institute (CLSI) antimicrobial susceptibility guidelines. The mono-therapeutic effect of each antibiotic and MBLI was evaluated across a panel of MBL-producing Enterobacterales.
# (§2) The drug susceptibility profile of meropenem in combination with BP2 was studied using the checkerboard assay. This assay was used to ascertain the effect of two drugs on antimicrobial resistance targeting CRE strains. The assay was performed according to the protocol described previously and was under CLSI antimicrobial susceptibility guidelines. Briefly, twofold dilutions of meropenem with each chelator were made in Cation-adjusted Mueller Hinton Broth (CAMHB) in a 96-well microtiter plate. A 0.5 McFarland-standardized bacterial inoculum was added to each well to obtain a final volume of 100 µL per well. Thereafter, plates were incubated at 37 °C for 18 h under aerobic conditions. The checkerboard assays were performed in triplicate. The MIC was determined as the lowest concentration at which no visible growth was present. The fractional inhibitory concentration index (FICI) was calculated for each combination according to the equation FICI = FICa (MIC of drug A in combination/MIC of drug A alone) + FICb (MIC of drug B in combination/MIC of drug B alone). The FICI was interpreted as follows: synergy, FICI ≤ 0.5; additive 0.5–1; indifference, […] FICI < 4; and antagonism, FICI ≥ 4 [61].
# [2] = system: Serratia marcescens (IMP-11); test: MIC, broth microdilution and checkerboard assay; format: cell-based
# Description: as §1, §2
# [3] = system: Escherichia coli BM 14 (VIM-1); test: MIC, broth microdilution and checkerboard assay; format: cell-based
# Description: as §1, §2
# [4] = system: Providencia stuartii PSTU (NDM-1); test: MIC, broth microdilution and checkerboard assay; format: cell-based
# Description: as §1, §2
# [5] = system: Klebsiella pneumoniae TWA (IMP-8); test: MIC, broth microdilution and checkerboard assay; format: cell-based
# Description: as §1, §2
# [6] = system: Enterobacter cloacae KAR (VIM-1); test: MIC, broth microdilution and checkerboard assay; format: cell-based
# Description: as §1, §2
# [7] = system: Escherichia coli DIH (VIM-19); test: MIC, broth microdilution and checkerboard assay; format: cell-based
# Description: as §1, §2
# [8] = system: Escherichia coli AUS 271 (NDM-1); test: MIC, broth microdilution and checkerboard assay; format: cell-based
# Description: as §1, §2
# [9] = system: Escherichia coli FEK (NDM-4); test: MIC, broth microdilution and checkerboard assay; format: cell-based
# Description: as §1, §2
# [10] = system: Klebsiella pneumoniae ENNES (VIM-1); test: MIC, broth microdilution and checkerboard assay; format: cell-based
# Description: as §1, §2
# [11] = system: Escherichia coli JAP (IMP-1); test: MIC, broth microdilution and checkerboard assay; format: cell-based
# Description: as §1, §2
# [12] = system: Escherichia coli TWA (IMP-8); test: MIC, broth microdilution and checkerboard assay; format: cell-based
# Description: as §1, §2
# [13] = system: Providencia Rettgeri IR38 (NDM-1); test: MIC, broth microdilution and checkerboard assay; format: cell-based
# Description: as §1, §2
# [14] = system: Enterobacter cloacae IR 386 (NDM-1); test: MIC, broth microdilution and checkerboard assay; format: cell-based
# Description: as §1, §2
# [15] = system: Klebsiella pneumoniae 6852 (IMP-1); test: MIC, broth microdilution and checkerboard assay; format: cell-based
# Description: as §1, §2
# [16] = system: Klebsiella pneumoniae DIH (VIM-19); test: MIC, broth microdilution and checkerboard assay; format: cell-based
# Description: as §1, §2
# [17] = system: Enterobacter cloacae TWA (IMP-8); test: MIC, broth microdilution and checkerboard assay; format: cell-based
# Description: as §1, §2
# [18] = system: Enterobacter cloacae BM 5 (IMP-1); test: MIC, broth microdilution and checkerboard assay; format: cell-based
# Description: as §1, §2
# [19] = Single-dose pharmacokinetic experiment; format: in vivo; conditions: for Time of peak concentration (Cmax) after drug administration: single dose, plasma
# Description: In order to evaluate BP2’s potential to act synergetically with antibacterial agents such as meropenem in vivo, we next performed a single-dose pharmacokinetic experiment to ensure an appropriate dosing schedule for achieving a safe and therapeutic concentration of BP2 in plasma. […] Constant concentrations were then reached after two hours. A plasma concentration of 1.93 µg/L was obtained with a dose of 10 mg/kg.b.w. This was far below the cytotoxicity concentrations seen in the cell viability assays, advocating for the safe increase in the treatment dose to 100 mg/kg.b.w, which allowed us to reach therapeutic concentrations (Figure 6) in plasma without the possibility of toxicity. In vivo efficacy studies were undertaken to assess the potency of BP2 in a murine infection model. This five-day animal trial was initiated by immune-suppressing the mice with cyclophosphamide to allow the progression of infection and allow BP2 + meropenem treatment to be studied over eight hours on day five of the trial. In addition, it excludes the effects of the innate immune response as a potential variable. This is important since many carbapenem-resistant infections are acquired as secondary infections in immune-suppressed hosts. The mice were successfully infected with Klebsiella pneumoniae NDM, evidenced by visible inflammation of the localized area; this correlated with the cfu/thigh data expressed (Tables S1–S3). Three treatment regimens of S (saline only), M (meropenem only), and BP2 combination therapy (BP2 + meropenem) were used to randomly categorize mice.
# A Shimadzu Nexera Series (Shimadzu Corporation, Kyoto, Japan) liquid chromatography system was coupled with Shimadzu LCMS-8050 tandem mass spectrometer (Shimadzu, Kyoto, Japan). […] Quantitative and qualitative studies were conducted using MRM mode via an ESI interface, with the following source parameters: nitrogen nebulizer gas flow 3 L/min; heat gas 10 L/min and interface temperature of 300 °C. […] Results were analyzed using LabSolutions Insight LCMS. All data are expressed as a mean ± SD.
smiles,measurement,setting,value
CON=C(C(=O)NC1C(=O)N2C(C(=O)O)=C(COC(C)=O)CSC12)c1csc(NC(=O)CC(C(=O)OC)N2CCN(CC(=O)O)CCN(CC(=O)O)CC2)n1 (stereo in doubt) [BP2],MIC,[1]; read-out: MIC BP2 Alone,> 256 µg/mL
same,MIC,[2]; read-out: MIC BP2 Alone,> 256 µg/mL
same,MIC,[3]; read-out: MIC BP2 Alone,> 256 µg/mL
same,MIC,[4]; read-out: MIC BP2 Alone,> 256 µg/mL
same,MIC,[5]; read-out: MIC BP2 Alone,> 256 µg/mL
same,MIC,[6]; read-out: MIC BP2 Alone,> 256 µg/mL
same,MIC,[7]; read-out: MIC BP2 Alone,> 256 µg/mL
same,MIC,[8]; read-out: MIC BP2 Alone,> 256 µg/mL
same,MIC,[9]; read-out: MIC BP2 Alone,> 256 µg/mL
same,MIC,[10]; read-out: MIC BP2 Alone,> 256 µg/mL
same,MIC,[11]; read-out: MIC BP2 Alone,> 256 µg/mL
same,MIC,[12]; read-out: MIC BP2 Alone,> 256 µg/mL
same,MIC,[13]; read-out: MIC BP2 Alone,> 256 µg/mL
same,MIC,[14]; read-out: MIC BP2 Alone,> 256 µg/mL
same,MIC,[15]; read-out: MIC BP2 Alone,> 256 µg/mL
same,MIC,[16]; read-out: MIC BP2 Alone,> 256 µg/mL
same,MIC,[17]; read-out: MIC BP2 Alone,> 256 µg/mL
same,MIC,[18]; read-out: MIC BP2 Alone,> 256 µg/mL
same,Plasma concentration,[19]; dose of 10 mg/kg.b.w,1.93 µg/L
same,Time of peak concentration (Cmax) after drug administration,[19],15 min
C[C@@H](O)[C@H]1C(=O)N2C(C(=O)O)=C(S[C@@H]3CN[C@H](C(=O)N(C)C)C3)[C@H](C)[C@H]12 [Meropenem],MIC,"[1]; S. marcescens BM 20 VIM-2, alone, read-out: MIC MEM Alone",> 32 µg/mL
same,MIC,"[2]; S. marcescens IMP-11, alone, read-out: MIC MEM Alone",> 32 µg/mL
same,MIC,"[3]; E. coli BM 14 VIM-1, alone, read-out: MIC MEM Alone",32 µg/mL
same,MIC,"[4]; P. stuartii PSTU NDM-1, alone, read-out: MIC MEM Alone",32 µg/mL
same,MIC,"[5]; K. pneumoniae TWA IMP-8, alone, read-out: MIC MEM Alone",8 µg/mL
same,MIC,"[6]; E. cloacae KAR VIM-1, alone, read-out: MIC MEM Alone",4 µg/mL
same,MIC,"[7]; E. coli DIH VIM-19, alone, read-out: MIC MEM Alone",> 32 µg/mL
same,MIC,"[8]; E. coli AUS 271 NDM-1, alone, read-out: MIC MEM Alone",> 128 µg/mL
same,MIC,"[9]; E. coli FEK NDM-4, alone, read-out: MIC MEM Alone",> 32 µg/mL
same,MIC,"[10]; K. pneumoniae ENNES VIM-1, alone, read-out: MIC MEM Alone",> 32 µg/mL
same,MIC,"[11]; E. coli JAP IMP-1, alone, read-out: MIC MEM Alone",8 µg/mL
same,MIC,"[12]; E. coli TWA IMP-8, alone, read-out: MIC MEM Alone",8 µg/mL
same,MIC,"[13]; P. Rettgeri IR38 NDM-1, alone, read-out: MIC MEM Alone",32 µg/mL
same,MIC,"[14]; E. cloacae IR 386 NDM-1, alone, read-out: MIC MEM Alone",32 µg/mL
same,MIC,"[15]; K. pneumoniae 6852 IMP-1, alone, read-out: MIC MEM Alone",> 32 µg/mL
same,MIC,"[16]; K. pneumoniae DIH VIM-19, alone, read-out: MIC MEM Alone",32 µg/mL
same,MIC,"[17]; E. cloacae TWA IMP-8, alone, read-out: MIC MEM Alone",0.125 µg/mL
same,MIC,[18]; read-out: MIC MEM Alone,> 32 µg/mL
same,Time of peak concentration (Cmax) after drug administration,[19],15 min
